Experimental data published in patent US8063071B2 (GlaxoSmithKline, LLC, priority 2007, dated 2011).
pIC50: −log10 of the molar value. Counter-ions that a name gives are not always drawn.

Tests used:
[1] = biological target: T1, Recombinant human IKKβ (residues 1-737) (Homo sapiens, UniProt O14920); experiment: IKK2 assay (TR-FRET); assay type: biochemical; conditions: ATP 1 μM final, read-out: pIC50 against IKK2 (converted)
T1 construct: Recombinant human IKKβ (residues 1-737); GST (C); made in house
T1 sequence (O14920 1-737): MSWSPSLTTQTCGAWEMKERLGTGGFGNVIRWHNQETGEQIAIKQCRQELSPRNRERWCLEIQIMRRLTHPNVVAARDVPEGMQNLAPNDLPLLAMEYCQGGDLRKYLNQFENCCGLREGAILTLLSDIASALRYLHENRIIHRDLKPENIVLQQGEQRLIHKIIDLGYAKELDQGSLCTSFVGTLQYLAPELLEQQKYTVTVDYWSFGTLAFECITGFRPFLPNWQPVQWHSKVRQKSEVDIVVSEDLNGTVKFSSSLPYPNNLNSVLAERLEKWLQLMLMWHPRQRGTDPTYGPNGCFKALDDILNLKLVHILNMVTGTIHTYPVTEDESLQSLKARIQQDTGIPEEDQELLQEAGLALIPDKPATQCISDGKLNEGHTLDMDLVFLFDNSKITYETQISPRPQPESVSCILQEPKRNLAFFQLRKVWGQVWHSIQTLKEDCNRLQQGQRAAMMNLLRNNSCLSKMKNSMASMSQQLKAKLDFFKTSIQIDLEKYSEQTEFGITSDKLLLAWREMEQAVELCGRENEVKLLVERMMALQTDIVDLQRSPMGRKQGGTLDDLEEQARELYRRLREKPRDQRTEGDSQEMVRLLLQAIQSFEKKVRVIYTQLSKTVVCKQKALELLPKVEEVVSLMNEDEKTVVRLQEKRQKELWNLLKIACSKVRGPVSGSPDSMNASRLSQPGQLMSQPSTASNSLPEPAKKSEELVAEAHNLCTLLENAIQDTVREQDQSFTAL
Procedure, shortened: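 Baculovirus-expressed C-terminal GST-tagged IKKβ (0.5-5 nM final) in HEPES pH 7.4, MgCl2, CHAPS, DTT, BSA with 1.7% DMSO; 25 nM GST-IB substrate and 1 μM ATP, 15 min at room temperature. EDTA stop; phospho-Ser32/36 detected by Eu-antibody/APC-anti-GST TR-FRET, 665/620 nm ratio.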

[2] = system: human monocyte stimulated cytokine production (TNF-α); experiment: Monocyte assay (LPS-stimulated TNF-α production); assay type: cell-based; conditions: for pIC50: 24 h, 200 ng/mL LPS, TNF-α by ELISA
Procedure, shortened: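 Human CD14+ monocytes were purified from blood and plated at 1×10^6 cells/mL in RPMI 1640 with 10% FBS. Compound was added 30 min before stimulation with 200 ng/mL LPS (0.1% DMSO final), followed by 24 hrs at 37 C. Supernatant TNF-α was measured by ELISA, and viability by trypan blue exclusion.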

Row | Structure (SMILES) | IC50 [1] [µM] | pIC50 [2] | inhibition at 0.3 µM ([2]; read-out: inhibition at 300 nM in the monocyte assay) [%]
1 | CC(C)S(=O)(=O)N1CCC(c2c[nH]c3c(C(N)=O)cc(-c4csc(CN(C)CCO)c4)cc23)CC1 [Example 397, 5-(5-{[(2-hydroxyethyl)(methyl)amino]methyl}-3-thienyl)-3-{1-[(1-methylethyl)sulfonyl]-4-piperidinyl}-1H-indole-7-carboxamide] | ≤ 10 | ≥ 5.82 | 
2 | CCS(=O)(=O)N1CCC(c2c[nH]c3c(C(N)=O)cc(-c4coc(CNCC(C)(C)C)c4)cc23)CC1 [Example 244, 5-(5-{[(2,2-dimethylpropyl)amino]methyl}-3-furanyl)-3-[1-(ethylsulfonyl)-4-piperidinyl]-1H-indole-7-carboxamide trifluoroacetate] | ≤ 10 | ≥ 5.82 | 
3 | CCS(=O)(=O)N1CCC(c2c[nH]c3c(C(N)=O)cc(-c4csc(CN(C)C5CCN(C)CC5)c4)cc23)CC1 [Example 42, 3-[1-(ethylsulfonyl)-4-piperidinyl]-5-(5-{[methyl(1-methyl-4-piperidinyl)amino]methyl}-3-thienyl)-1H-indole-7-carboxamide trifluoroacetate] | ≤ 10 | ≥ 5.82 | 
4 | CCS(=O)(=O)N1CCC(c2c[nH]c3c(C(N)=O)cc(-c4csc(CN(C)CC(C)C)c4)cc23)CC1 [Example 73, 3-[1-(ethylsulfonyl)-4-piperidinyl]-5-(5-{[methyl(2-methylpropyl)amino]methyl}-3-thienyl)-1H-indole-7-carboxamide trifluoroacetate] | ≤ 10 | ≥ 5.82 | 
5 | CCS(=O)(=O)N1CCC(c2c[nH]c3c(C(N)=O)cc(-c4csc(CN(C)C)n4)cc23)CC1 [Example 355, 5-{2-[(dimethylamino)methyl]-1,3-thiazol-4-yl}-3-[1-(ethylsulfonyl)-4-piperidinyl]-1H-indole-7-carboxamide trifluoroacetate] | ≤ 10 |  | 0 to 60
6 | CCS(=O)(=O)N1CCC(c2c[nH]c3c(C(N)=O)cc(-c4csc(CN5CCOCC5)c4)cc23)CC1 [Example 236, 3-[1-(ethylsulfonyl)-4-piperidinyl]-5-[5-(4-morpholinylmethyl)-3-thienyl]-1H-indole-7-carboxamide trifluoroacetate] | ≤ 10 | ≥ 5.82 | 
7 | CCS(=O)(=O)N1CCC(c2c[nH]c3c(C(N)=O)cc(-c4cccc(CNS(=O)(=O)c5ccc(Br)cc5)c4)cc23)CC1 [Example 371, 5-[3-({[(4-bromophenyl)sulfonyl]amino}methyl)phenyl]-3-[1-(ethylsulfonyl)-4-piperidinyl]-1H-indole-7-carboxamide] | ≤ 10 | ≥ 5.82 | 
8 | CCS(=O)(=O)N1CCC(c2c[nH]c3c(C(N)=O)cc(-c4csc(CN[C@H](C)C(C)C)c4)cc23)CC1 [Example 113, 5-[5-({[(1R)-1,2-dimethylpropyl]amino}methyl)-3-thienyl]-3-[1-(ethylsulfonyl)-4-piperidinyl]-1H-indole-7-carboxamide trifluoroacetate] | ≤ 10 | ≥ 5.82 | 
9 | CCN(C)Cc1cc(-c2cc(C(N)=O)c3[nH]cc(C4CCN(S(=O)(=O)C(C)C)CC4)c3c2)cs1 [Example 101, 5-(5-{[ethyl(methyl)amino]methyl}-3-thienyl)-3-{1-[(1-methylethyl)sulfonyl]-4-piperidinyl}-1H-indole-7-carboxamide] | ≤ 10 | ≥ 5.82 | 
10 | CCS(=O)(=O)N1CCC(c2c[nH]c3c(C(N)=O)cc(-c4cccc(CNCc5ccsc5)c4)cc23)CC1 [Example 17, 3-[1-(ethylsulfonyl)-4-piperidinyl]-5-(3-{[(3-thienylmethyl)amino]methyl}phenyl)-1H-indole-7-carboxamide] | ≤ 10 | ≥ 5.82 | 
11 | CCS(=O)(=O)N1CCC(c2c[nH]c3c(C(N)=O)cc(-c4ccc(CNC(=O)c5cc(C)nn5C(C)(C)C)cc4)cc23)CC1 [Example 128, 5-{4-[({[1-(1,1-dimethylethyl)-3-methyl-1H-pyrazol-5-yl]carbonyl}amino)methyl]phenyl}-3-[1-(ethylsulfonyl)-4-piperidinyl]-1H-indole-7-carboxamide trifluoroacetate] | ≤ 10 | < 6.00 | 
